The values below come from PubChem BioAssay (NCI).

Test systems include HT29 colon; MDA-MB-231 breast; ACHN renal; NCI-H460 lung; UACC-62 melanoma; NCI-H522 lung; NCI-H23 lung; SN12C renal; HCT-15 colon; MDA-MB-435; U251 CNS; DU-145 prostate; K-562 leukemia; SNB-19 CNS; T-47D breast; SR leukemia; SK-MEL-2 melanoma; HOP-92 NSCLC; PC-3 prostate; RXF 393 renal.
Holding throughout (test): inhibition of tumour cell growth, NCI panel, 48 h

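Dose response: 5 concentrations. Exposure: 48 h. Format: 96-well plates. Endpoint: linear interpolation; highest concentration if not reached. TGI marks complete inhibition of growth.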

Regarding `Nc1nc(Cl)c2ncn(Cc3ccccc3CCl)c2n1`, the TGI with HT29 colon amounted to 18.9 µM; with MDA-MB-231 breast it was 9.61 µM; with ACHN renal, 22 µM; in the assay with NCI-H460 lung, 36.8 µM; with UACC-62 melanoma it was 4.33 µM; in the assay on NCI-H522 lung it was 9.41 µM. Also, the TGI with NCI-H23 lung was determined as 8.84 µM; in the assay with SN12C renal it was 5.62 µM; in the assay with HCT-15 colon it was 7.45 µM; with MDA-MB-435, 27 µM; with U251 CNS, 13.4 µM; with DU-145 prostate it was 32.3 µM. The TGI in the assay with K-562 leukemia is > 100 µM; in the assay on SNB-19 CNS, 27.5 µM; in the assay with T-47D breast it was 83.9 µM; in the assay with SR leukemia, > 100 µM; in the assay on SK-MEL-2 melanoma, 80.6 µM; in the assay with HOP-92 NSCLC it was 31.1 µM. Also, the TGI in the assay on PC-3 prostate stood at 68.1 µM.
`CC(C)C1OCC(CO)CO1` (stereo unspecified): the TGI in the assay on HT29 colon, with MDA-MB-231 breast, in the assay on ACHN renal, in the assay on NCI-H460 lung, with UACC-62 melanoma and with NCI-H522 lung was > 100 µM throughout. Moreover, the TGI with RXF 393 renal, in the assay on NCI-H23 lung, in the assay on SN12C renal, with HCT-15 colon, in the assay on MDA-MB-435 and in the assay on U251 CNS was > 100 µM each time. For the same compound, the TGI in the assay on DU-145 prostate, with SNB-19 CNS, in the assay on T-47D breast, in the assay with SR leukemia, in the assay with SK-MEL-2 melanoma and with HOP-92 NSCLC was > 100 µM in each case. Besides, the TGI in the assay on PC-3 prostate is > 100 µM.
Consider `C=CCCCC1(C)CCCCNC1=O` (stereo unspecified), for which the TGI in the assay with HT29 colon, in the assay on MDA-MB-231 breast, in the assay on ACHN renal, with NCI-H460 lung, in the assay on UACC-62 melanoma and in the assay on RXF 393 renal was > 10 µM each time. The TGI in the assay on NCI-H23 lung, with SN12C renal, in the assay on HCT-15 colon, with MDA-MB-435, with U251 CNS and with DU-145 prostate was > 10 µM throughout. Also, the TGI in the assay with K-562 leukemia, with SNB-19 CNS, in the assay on T-47D breast, with SR leukemia, in the assay on SK-MEL-2 melanoma and in the assay on PC-3 prostate was > 10 µM throughout.
Regarding `OC[C@H]1CC(c2nn[nH]n2)[C@H](O)[C@@H]1O` (stereo partly specified), the TGI in the assay with HT29 colon, in the assay with MDA-MB-231 breast, in the assay with ACHN renal, in the assay on NCI-H460 lung, with NCI-H522 lung and in the assay with RXF 393 renal was > 100 µM throughout. Further, the TGI in the assay with NCI-H23 lung, in the assay with SN12C renal, in the assay on HCT-15 colon, with MDA-MB-435, in the assay on U251 CNS and with DU-145 prostate was > 100 µM throughout. For the same compound, the TGI in the assay with K-562 leukemia, with SNB-19 CNS, with T-47D breast, in the assay on SR leukemia, in the assay with HOP-92 NSCLC and in the assay with PC-3 prostate was > 100 µM throughout.
As for `Cc1ccc(S(=O)(=O)n2ccn3c(=O)cc(C)nc23)cc1`, the TGI in the assay on HT29 colon, in the assay with MDA-MB-231 breast, with ACHN renal, in the assay with NCI-H460 lung, in the assay on UACC-62 melanoma and in the assay on RXF 393 renal was > 10 µM throughout. Besides, the TGI with NCI-H23 lung, in the assay with SN12C renal, in the assay on HCT-15 colon, with MDA-MB-435, in the assay on U251 CNS and with DU-145 prostate was > 10 µM each time. Besides, the TGI with K-562 leukemia, in the assay with SNB-19 CNS, in the assay with T-47D breast, in the assay with SR leukemia, in the assay on SK-MEL-2 melanoma and in the assay with HOP-92 NSCLC was > 10 µM throughout. Also, the TGI with PC-3 prostate is > 10 µM.
`COC(CNC(=O)C(C)NC(=O)C(C)NC(=O)c1ccccc1)OC` (stereo unspecified): the TGI in the assay on HT29 colon, in the assay on MDA-MB-231 breast, in the assay on ACHN renal, with NCI-H460 lung, with UACC-62 melanoma and in the assay on NCI-H522 lung was > 100 µM each time. Besides, the TGI in the assay on RXF 393 renal, in the assay on NCI-H23 lung, in the assay on SN12C renal, with HCT-15 colon, in the assay on MDA-MB-435 and with U251 CNS was > 100 µM throughout. The TGI in the assay on DU-145 prostate, with K-562 leukemia, in the assay with T-47D breast, in the assay with SR leukemia, in the assay with SK-MEL-2 melanoma and in the assay on HOP-92 NSCLC was > 100 µM each time. Further, in the assay with PC-3 prostate, the TGI was > 100 µM.
Take `O=S(=O)(Nc1ccccc1S(=O)(=O)c1ccccc1)c1ccccc1`: the TGI with HT29 colon, in the assay with MDA-MB-231 breast, in the assay with ACHN renal, with UACC-62 melanoma, in the assay with NCI-H522 lung and in the assay on RXF 393 renal was > 100 µM in each case. The TGI with NCI-H23 lung, in the assay on SN12C renal, in the assay on HCT-15 colon, with MDA-MB-435, with U251 CNS and in the assay on DU-145 prostate was > 100 µM throughout. The TGI with K-562 leukemia, in the assay with SNB-19 CNS, with T-47D breast, in the assay with SR leukemia, with SK-MEL-2 melanoma and with HOP-92 NSCLC was > 100 µM throughout. Further, the TGI with PC-3 prostate is > 100 µM.
